# In ChEMBL document CHEMBL1134761, “A new concept for multidimensional selection of ligand conformations (MultiSelect) and multidimensional scoring (MultiScore) of protein-ligand binding affinities” (J Med Chem, 2001):
# pKi: −log10 of the molar value.
# Key:
# Stromelysin-1 = Stromelysin-1 (Homo sapiens, UniProt P08254); assay: Inhibitory constant against matrix metalloprotease-3
# Interstitial collagenase = biological target: T1, Interstitial collagenase (Homo sapiens, UniProt P03956); assay: Inhibitory constant against matrix metalloprotease-1
# T1 sequence (P03956 whole entry): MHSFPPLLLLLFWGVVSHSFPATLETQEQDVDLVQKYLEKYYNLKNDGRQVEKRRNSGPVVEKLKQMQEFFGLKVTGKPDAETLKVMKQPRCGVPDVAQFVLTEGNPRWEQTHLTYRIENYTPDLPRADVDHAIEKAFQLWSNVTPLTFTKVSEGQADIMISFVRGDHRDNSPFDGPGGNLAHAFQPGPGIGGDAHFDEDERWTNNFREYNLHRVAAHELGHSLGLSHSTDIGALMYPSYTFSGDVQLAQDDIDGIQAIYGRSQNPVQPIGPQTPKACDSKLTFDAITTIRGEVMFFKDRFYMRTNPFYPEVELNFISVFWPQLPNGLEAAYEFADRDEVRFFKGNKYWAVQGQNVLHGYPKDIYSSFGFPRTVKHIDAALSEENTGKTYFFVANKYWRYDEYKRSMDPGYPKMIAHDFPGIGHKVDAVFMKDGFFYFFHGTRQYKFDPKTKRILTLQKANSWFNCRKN
# [1] = biological target: 72 kDa type IV collagenase (Homo sapiens, UniProt P08253); assay: Inhibitory constant against matrix metalloprotease-2
# Sequence of 72 kDa type IV collagenase (P08253 whole entry): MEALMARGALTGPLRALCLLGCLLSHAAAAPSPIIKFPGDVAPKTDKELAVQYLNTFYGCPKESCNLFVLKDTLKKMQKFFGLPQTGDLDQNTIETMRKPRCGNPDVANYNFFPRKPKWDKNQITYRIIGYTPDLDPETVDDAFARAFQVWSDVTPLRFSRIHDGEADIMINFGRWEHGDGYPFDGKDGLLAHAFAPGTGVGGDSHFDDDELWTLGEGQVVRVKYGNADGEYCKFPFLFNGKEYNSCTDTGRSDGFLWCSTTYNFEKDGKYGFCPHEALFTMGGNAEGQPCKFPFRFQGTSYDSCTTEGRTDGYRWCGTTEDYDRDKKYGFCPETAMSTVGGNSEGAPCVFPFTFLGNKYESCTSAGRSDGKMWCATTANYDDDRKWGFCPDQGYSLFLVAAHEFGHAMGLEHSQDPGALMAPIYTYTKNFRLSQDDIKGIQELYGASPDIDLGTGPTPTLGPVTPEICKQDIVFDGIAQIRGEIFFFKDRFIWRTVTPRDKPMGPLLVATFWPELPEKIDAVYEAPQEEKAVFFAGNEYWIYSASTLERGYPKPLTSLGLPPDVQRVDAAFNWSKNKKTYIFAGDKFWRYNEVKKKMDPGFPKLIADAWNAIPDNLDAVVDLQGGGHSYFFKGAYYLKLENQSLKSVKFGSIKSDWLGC
# Sequence of Stromelysin-1 (P08254 whole entry): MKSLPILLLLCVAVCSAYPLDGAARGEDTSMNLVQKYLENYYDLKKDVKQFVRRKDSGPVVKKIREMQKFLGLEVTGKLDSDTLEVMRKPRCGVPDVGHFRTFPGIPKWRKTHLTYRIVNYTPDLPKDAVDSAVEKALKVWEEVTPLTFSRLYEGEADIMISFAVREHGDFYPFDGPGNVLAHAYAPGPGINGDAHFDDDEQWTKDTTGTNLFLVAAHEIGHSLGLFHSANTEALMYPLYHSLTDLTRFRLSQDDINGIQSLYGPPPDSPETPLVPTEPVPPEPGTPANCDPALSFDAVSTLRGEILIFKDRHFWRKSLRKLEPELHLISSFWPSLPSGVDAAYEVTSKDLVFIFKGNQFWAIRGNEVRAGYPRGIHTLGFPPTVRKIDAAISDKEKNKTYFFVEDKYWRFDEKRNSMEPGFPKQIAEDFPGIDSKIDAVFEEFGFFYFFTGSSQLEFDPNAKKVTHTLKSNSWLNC
pKi (Stromelysin-1),pKi (Interstitial collagenase),pKi [1],Compound
8.76,6.52,11.00,O=C(C[C@@H](CCCc1ccc(Cl)cc1)C(=O)N[C@@H](CC1CCCCC1)C(=O)NCCC(=O)NCCNS(=O)(=O)N1CCOCC1)NO
8.20,6.34,11.00,Cc1ccc(CCC[C@H](CC(=O)NO)C(=O)N[C@@H](CC2CCCCC2)C(=O)NCCC(=O)NCCN2CCOCC2)cc1
7.09,6.03,9.23,O=C(C[C@@H](CCCc1ccccc1)C(=O)N[C@@H](CC1CCCCC1)C(=O)NCCC(=O)NCCc1ccc(S(=O)(=O)O)cc1)NO
8.86,6.50,10.70,O=C(C[C@@H](CCCc1ccc(Cl)cc1)C(=O)N[C@@H](CC1CCCCC1)C(=O)NCCC(=O)NCCC(=O)N1CCOCC1)NO
8.56,6.41,10.52,Cc1ccc(CCC[C@H](CC(=O)NO)C(=O)N[C@@H](CC2CCCCC2)C(=O)NCCC(=O)NCCNS(=O)(=O)N2CCOCC2)cc1
9.02,6.87,11.00,COC(=O)CCNC(=O)CCNC(=O)[C@H](CC1CCCCC1)NC(=O)[C@H](CCCc1ccc(Cl)cc1)CC(=O)NO
8.20,6.42,11.00,NS(=O)(=O)c1ccc(CCNC(=O)CCNC(=O)[C@H](CC2CCCCC2)NC(=O)[C@H](CCCc2ccc(Cl)cc2)CC(=O)NO)cc1
8.53,6.48,10.70,Cc1ccc(CCC[C@H](CC(=O)NO)C(=O)N[C@@H](CC2CCCCC2)C(=O)NCCC(=O)NCCc2ccc(S(N)(=O)=O)cc2)cc1
8.62,6.50,10.52,O=C(C[C@@H](CCCc1ccc(Cl)cc1)C(=O)N[C@@H](CC1CCCCC1)C(=O)NCCC(=O)NCCCCN1CCOCC1)NO
9.10,6.71,11.00,O=C(O)CCNC(=O)CCNC(=O)[C@H](CC1CCCCC1)NC(=O)[C@H](CCCc1ccc(Cl)cc1)CC(=O)NO
,4.77,,Cc1ccc(CCC[C@H](CP(=O)(O)O)C(=O)N[C@@H](CC2CCCCC2)C(=O)NCCc2ccccc2)cc1
8.23,6.50,10.52,Cc1ccc(CCC[C@H](CC(=O)NO)C(=O)N[C@@H](CC2CCCCC2)C(=O)NCCC(=O)NCCCCN(C)C)cc1
7.65,5.98,10.30,CN(C)CCCCNC(=O)CCNC(=O)[C@H](CC1CCCCC1)NC(=O)[C@H](CCCc1ccc(Cl)cc1)CC(=O)NO
8.58,6.19,10.70,Cc1ccc(CCC[C@H](CC(=O)NO)C(=O)N[C@@H](CC2CCCCC2)C(=O)NCCC(=O)NCCCCN2CCOCC2)cc1
5.96,,,NC(=O)CCCNC(=O)[C@H](CC1CCCCC1)NC(=O)[C@H](CCCc1ccccc1)CC(=O)O

Compound,pKi (Stromelysin-1),pKi (Interstitial collagenase),pKi [1]
Cc1ccc(CCC[C@H](CC(=O)O)C(=O)N[C@@H](CC2CCCCC2)C(=O)NCCCCN2CCOCC2)cc1,5.80,4.00,
COc1ccc(CCC[C@H](CC(=O)O)C(=O)N[C@@H](CC2CCCCC2)C(=O)NCCc2ccc(S(N)(=O)=O)cc2)cc1,,4.00,
